Calls of active or inactive are those of the source. The rule behind the calls is not given here.
System: COS-7
Assay: Inhibition of autophagy in African green monkey COS-7 cells assessed as effect on LC3 level at upto 40 uM by flow cytometry analysis
Assay type: functional, cell-based
Settings: Chlorocebus aethiops

Structure (SMILES) | inhibition
Cn1cnc(N)c2ncnc1-2 | inactive
CCN(CCO)CCCC(C)Nc1ccnc2cc(Cl)ccc12 (stereo unspecified) | inactive

System: not listed separately
Assay: Inhibition of ATG5-ATG16L1 (unknown origin) protein protein interaction expressed in Escherichia coli BL21 (DE3) by HTRF method
Set-up: species or system Homo sapiens
Settings: not given

Structure (SMILES) | IC50
O=C(O)CCCN1C(=O)/C(=C/c2ccc(-c3ccc([N+](=O)[O-])cc3)o2)C=C1c1ccccc1 | Not Active
CC1=NN(c2ccccc2)C(=O)/C1=C\c1ccc(-c2cc(C)c(C)cc2[N+](=O)[O-])o1 | Not Active
NC(=O)c1cccc(-c2ccc(/C=C3\C=C(c4ccccc4)N(Cc4ccc(C(=O)O)cc4)C3=O)o2)c1 | Not Active
O=C1/C(=C/c2ccc(-c3ccc([N+](=O)[O-])cc3)o2)C=C(c2ccccc2)N1Cc1ccccc1 | Not Active
CC1=NN(c2ccc(C(=O)O)cc2)C(=O)C1Cc1ccc(-c2cc(C)c(C)cc2[N+](=O)[O-])s1 (stereo unspecified) | Not Active
COC(=O)CCCCN1C(=O)/C(=C/c2ccc(-c3ccc([N+](=O)[O-])cc3)o2)C=C1c1ccccc1 | Not Active
O=C1/C(=C/c2ccc(-c3ccc([N+](=O)[O-])cc3)o2)C=C(c2ccccc2)N1Cc1ccc(C(F)(F)F)cc1 | Not Active
COC(=O)c1ccc(N2C(=O)/C(=C/c3ccc(-c4ccc([N+](=O)[O-])cc4)o3)C=C2c2ccccc2)cc1 | Not Active
COC(=O)CCN1C(=O)/C(=C/c2ccc(-c3ccc([N+](=O)[O-])cc3)o2)C=C1c1ccccc1 | Not Active
CC(=O)Nc1cccc(-c2ccc(/C=C3\C=C(c4ccccc4)N(Cc4ccc(C(=O)O)cc4)C3=O)o2)c1 | Not Active
CC1=NN(c2ccc(C(=O)O)cc2)C(=O)/C1=C\c1ccc(-c2ccccc2P(C)(C)=O)o1 | Not Active
COC(=O)CCCN1C(=O)/C(=C/c2ccc(-c3ccc([N+](=O)[O-])cc3)o2)C=C1c1ccccc1 | Not Active
O=C(O)CN1C(=O)/C(=C/c2ccc(-c3ccc([N+](=O)[O-])cc3)o2)C=C1c1ccccc1 | Not Active
CS(=O)(=O)c1ccc(-c2ccc(/C=C3\C=C(c4ccccc4)N(Cc4ccc(C(=O)O)cc4)C3=O)o2)cc1 | Not Active
O=C(O)c1ccc(N2C(=O)/C(=C/c3ccc(-c4cccnc4)s3)C=C2c2ccccc2)cc1 | Not Active
CC1=NN(c2ccc(C(=O)O)cc2)C(=O)C1Cc1ccc(-c2cccc([N+](=O)[O-])c2)s1 (stereo unspecified) | Not Active
COC(=O)c1ccc(CN2C(=O)/C(=C/c3ccc(-c4ccc([N+](=O)[O-])cc4)o3)C=C2c2ccccc2)cc1 | Not Active
N#Cc1ccc(-c2ccc(/C=C3\C=C(c4ccccc4)N(c4ccc(C(=O)O)cc4)C3=O)s2)cc1 | Not Active

Same assay, conditions: read-out: IC50

Structure (SMILES) | IC50
O=C(O)c1ccc(N2C(=O)/C(=C/c3ccc(-c4ccc([N+](=O)[O-])cc4)s3)C=C2c2ccccc2)cc1 | 18 µM
O=C(O)c1ccc(CN2C(=O)/C(=C/c3ccc(-c4ccccc4)o3)C=C2c2ccccc2)cc1 | > 33 µM
CC1=NN(c2ccc(C(=O)O)cc2)C(=O)C1Cc1ccc(-c2ccc([N+](=O)[O-])cc2)s1 (stereo unspecified) | > 33 µM
CC1=NN(c2ccc(C(=O)O)cc2)C(=O)C1Cc1ccc(-c2cc(C)c(C)cc2[N+](=O)[O-])o1 (stereo unspecified) | > 33 µM
O=C(O)c1ccc(N2C(=O)/C(=C/c3ccc(-c4ccc(Br)cc4)o3)C=C2c2ccccc2)cc1 | > 33 µM
CC1=NN(c2ccc(C(=O)O)cc2)C(=O)/C1=C\c1ccc(-c2ccccc2C(F)F)o1 | 21.4 µM
O=C(O)c1ccc(N2C(=O)/C(=C/c3ccc(-c4ccc(O)cc4)s3)C=C2c2ccccc2)cc1 | 12 µM
O=C(O)c1ccc(CN2C(=O)/C(=C/c3ccc(-c4cccc([N+](=O)[O-])c4)o3)C=C2c2ccccc2)cc1 | 6.14 µM
O=C(O)CCCCN1C(=O)/C(=C/c2ccc(-c3ccc([N+](=O)[O-])cc3)o2)C=C1c1ccccc1 | > 33 µM

System: not listed separately
Assay: Inhibition of ATG5-TECAIR (unknown origin) protein protein interaction expressed in Escherichia coli BL21 (DE3) by HTRF method
Set-up: species or system Homo sapiens
Settings: not given

Structure (SMILES) | IC50
O=C1/C(=C/c2ccc(-c3ccc([N+](=O)[O-])cc3)o2)C=C(c2ccccc2)N1Cc1ccccc1 | Not Active
COC(=O)CCCCN1C(=O)/C(=C/c2ccc(-c3ccc([N+](=O)[O-])cc3)o2)C=C1c1ccccc1 | Not Active
O=C1/C(=C/c2ccc(-c3ccc([N+](=O)[O-])cc3)o2)C=C(c2ccccc2)N1Cc1ccc(C(F)(F)F)cc1 | Not Active
COC(=O)c1ccc(N2C(=O)/C(=C/c3ccc(-c4ccc([N+](=O)[O-])cc4)o3)C=C2c2ccccc2)cc1 | Not Active
COC(=O)CCN1C(=O)/C(=C/c2ccc(-c3ccc([N+](=O)[O-])cc3)o2)C=C1c1ccccc1 | Not Active
CC(=O)Nc1cccc(-c2ccc(/C=C3\C=C(c4ccccc4)N(Cc4ccc(C(=O)O)cc4)C3=O)o2)c1 | Not Active
CC1=NN(c2ccc(C(=O)O)cc2)C(=O)/C1=C\c1ccc(-c2ccccc2P(C)(C)=O)o1 | Not Active
COC(=O)CCCN1C(=O)/C(=C/c2ccc(-c3ccc([N+](=O)[O-])cc3)o2)C=C1c1ccccc1 | Not Active
COC(=O)c1ccc(CN2C(=O)/C(=C/c3ccc(-c4ccc([N+](=O)[O-])cc4)o3)C=C2c2ccccc2)cc1 | Not Active
N#Cc1ccc(-c2ccc(/C=C3\C=C(c4ccccc4)N(c4ccc(C(=O)O)cc4)C3=O)s2)cc1 | Not Active

Same assay, conditions: read-out: IC50

Structure (SMILES) | IC50
O=C(O)c1ccc(N2C(=O)/C(=C/c3ccc(-c4ccc([N+](=O)[O-])cc4)s3)C=C2c2ccccc2)cc1 | 30 µM
O=C(O)c1ccc(CN2C(=O)/C(=C/c3ccc(-c4ccccc4)o3)C=C2c2ccccc2)cc1 | > 33 µM
CC1=NN(c2ccc(C(=O)O)cc2)C(=O)C1Cc1ccc(-c2ccc([N+](=O)[O-])cc2)s1 (stereo unspecified) | > 33 µM
O=C(O)CCCN1C(=O)/C(=C/c2ccc(-c3ccc([N+](=O)[O-])cc3)o2)C=C1c1ccccc1 | 20.8 µM
CC1=NN(c2ccc(C(=O)O)cc2)C(=O)C1Cc1ccc(-c2cc(C)c(C)cc2[N+](=O)[O-])o1 (stereo unspecified) | > 33 µM
O=C(O)c1ccc(N2C(=O)/C(=C/c3ccc(-c4ccc(Br)cc4)o3)C=C2c2ccccc2)cc1 | 19 µM
CC1=NN(c2ccccc2)C(=O)/C1=C\c1ccc(-c2cc(C)c(C)cc2[N+](=O)[O-])o1 | > 33 µM
CC1=NN(c2ccc(C(=O)O)cc2)C(=O)/C1=C\c1ccc(-c2ccccc2C(F)F)o1 | > 33 µM
O=C(O)c1ccc(N2C(=O)/C(=C/c3ccc(-c4ccc(O)cc4)s3)C=C2c2ccccc2)cc1 | 10 µM
O=C(O)c1ccc(CN2C(=O)/C(=C/c3ccc(-c4cccc([N+](=O)[O-])c4)o3)C=C2c2ccccc2)cc1 | 10.5 µM
O=C(O)CCCCN1C(=O)/C(=C/c2ccc(-c3ccc([N+](=O)[O-])cc3)o2)C=C1c1ccccc1 | 19.2 µM
NC(=O)c1cccc(-c2ccc(/C=C3\C=C(c4ccccc4)N(Cc4ccc(C(=O)O)cc4)C3=O)o2)c1 | > 33 µM
CC1=NN(c2ccc(C(=O)O)cc2)C(=O)C1Cc1ccc(-c2cc(C)c(C)cc2[N+](=O)[O-])s1 (stereo unspecified) | > 33 µM
O=C(O)CN1C(=O)/C(=C/c2ccc(-c3ccc([N+](=O)[O-])cc3)o2)C=C1c1ccccc1 | 31.2 µM
CS(=O)(=O)c1ccc(-c2ccc(/C=C3\C=C(c4ccccc4)N(Cc4ccc(C(=O)O)cc4)C3=O)o2)cc1 | > 33 µM
O=C(O)c1ccc(N2C(=O)/C(=C/c3ccc(-c4cccnc4)s3)C=C2c2ccccc2)cc1 | > 33 µM
CC1=NN(c2ccc(C(=O)O)cc2)C(=O)C1Cc1ccc(-c2cccc([N+](=O)[O-])c2)s1 (stereo unspecified) | > 33 µM

System: COS-7
Assay: Inhibition of autophagy in African green monkey COS-7 cells at 20 uM by flow cytometry analysis relative to control
Assay type: functional
Settings: Chlorocebus aethiops

Structure (SMILES) | inhibition at 20 µM
O=C(O)c1ccc(N2C(=O)/C(=C/c3ccc(-c4ccc([N+](=O)[O-])cc4)s3)C=C2c2ccccc2)cc1 | 90.9%
O=C(O)c1ccc(CN2C(=O)/C(=C/c3ccc(-c4ccccc4)o3)C=C2c2ccccc2)cc1 | 20.6%
O=C(O)CCCN1C(=O)/C(=C/c2ccc(-c3ccc([N+](=O)[O-])cc3)o2)C=C1c1ccccc1 | 5.3%
O=C(O)c1ccc(N2C(=O)/C(=C/c3ccc(-c4ccc(Br)cc4)o3)C=C2c2ccccc2)cc1 | 97.3%
O=C(O)c1ccc(N2C(=O)/C(=C/c3ccc(-c4ccc(O)cc4)s3)C=C2c2ccccc2)cc1 | 98.8%
O=C(O)c1ccc(CN2C(=O)/C(=C/c3ccc(-c4cccc([N+](=O)[O-])c4)o3)C=C2c2ccccc2)cc1 | 36%
O=C(O)CCCCN1C(=O)/C(=C/c2ccc(-c3ccc([N+](=O)[O-])cc3)o2)C=C1c1ccccc1 | 14.6%
NC(=O)c1cccc(-c2ccc(/C=C3\C=C(c4ccccc4)N(Cc4ccc(C(=O)O)cc4)C3=O)o2)c1 | 8.3%
O=C1/C(=C/c2ccc(-c3ccc([N+](=O)[O-])cc3)o2)C=C(c2ccccc2)N1Cc1ccccc1 | 78.7%
COC(=O)CCCCN1C(=O)/C(=C/c2ccc(-c3ccc([N+](=O)[O-])cc3)o2)C=C1c1ccccc1 | 16.6%
O=C1/C(=C/c2ccc(-c3ccc([N+](=O)[O-])cc3)o2)C=C(c2ccccc2)N1Cc1ccc(C(F)(F)F)cc1 | 87.7%
COC(=O)c1ccc(N2C(=O)/C(=C/c3ccc(-c4ccc([N+](=O)[O-])cc4)o3)C=C2c2ccccc2)cc1 | 98.9%
COC(=O)CCN1C(=O)/C(=C/c2ccc(-c3ccc([N+](=O)[O-])cc3)o2)C=C1c1ccccc1 | 77.1%
CC(=O)Nc1cccc(-c2ccc(/C=C3\C=C(c4ccccc4)N(Cc4ccc(C(=O)O)cc4)C3=O)o2)c1 | 20%
COC(=O)CCCN1C(=O)/C(=C/c2ccc(-c3ccc([N+](=O)[O-])cc3)o2)C=C1c1ccccc1 | 74.5%
O=C(O)CN1C(=O)/C(=C/c2ccc(-c3ccc([N+](=O)[O-])cc3)o2)C=C1c1ccccc1 | 3.29%
CS(=O)(=O)c1ccc(-c2ccc(/C=C3\C=C(c4ccccc4)N(Cc4ccc(C(=O)O)cc4)C3=O)o2)cc1 | 53.7%
O=C(O)c1ccc(N2C(=O)/C(=C/c3ccc(-c4cccnc4)s3)C=C2c2ccccc2)cc1 | 97.3%
COC(=O)c1ccc(CN2C(=O)/C(=C/c3ccc(-c4ccc([N+](=O)[O-])cc4)o3)C=C2c2ccccc2)cc1 | 59.8%
N#Cc1ccc(-c2ccc(/C=C3\C=C(c4ccccc4)N(c4ccc(C(=O)O)cc4)C3=O)s2)cc1 | 93.9%

Reference: ChEMBL document CHEMBL5380800, “Discovery of Small-Molecule Autophagy Inhibitors by Disrupting the Protein-Protein Interactions Involving Autophagy-Related 5” (J Med Chem, 2023)
